Measurements as given in article PMC5114727, “Biological characterization of chemically diverse compounds targeting the Plasmodium falciparum coenzyme A synthesis pathway” (Parasites & Vectors, 2016).
Where “and” joins values, the source holds several entries; their conditions need not be identical. Identical values can stand only once. Like-named read-outs stand apart in the source and are kept apart here.

Experiments:
[1] = test system: panel of human cancer cell lines (MCF7, MDA-MB-231, PC-3); assay: Cytotoxicity across the panel of cell lines; format: cell-based; details: for cytotoxicity against any of the cell lines investigated (in words): up to the highest tested concentration of 40 μM; for IC50: MCF7, MDA-MB-231, PC-3, read-out: IC50 range against the cancer cell lines
From the text: (§1) An initial indication of compound selectivity over human cells had previously been obtained through comparison of the compounds’ IC50 values against P. falciparum asexual stages and HEK293 [22]. In the present study, the selectivity investigation was extended to a small panel of human cancer cell lines, namely the estrogen receptor (ER)-positive breast cancer cell line MCF7, the ER-negative MDA-MB-231, as well as the human prostate cancer line, PC-3. Additionally, the cytotoxic effects on mouse embryonic fibroblast cell line 3T3, which serves as the host cell for T. cruzi in our image-based amastigote assay, were investigated.
(§2) Cytotoxicity of the compounds was assessed against a panel of human cancer cell lines, namely the estrogen receptor (ER)-positive breast cancer cell line MCF7, the ER-negative MDA-MB-231 and the prostate cancer line PC-3. All the cell lines were purchased from ATCC and maintained as previously described. Two biological replicates consisting of two technical replicates each were performed to generate concentration response curves (CRC) with a final highest concentration of 40 μM. A resazurin-based assay was utilized to determine cell viability as described earlier. Additionally, the cytotoxic effects on the mouse embryonic fibroblast cell line 3T3 were assessed as part of the Trypanosoma cruzi amastigote image-based assay as outlined in [35].

PC-3 cells = assay: Resazurin cytotoxicity assay, PC-3; format: cell-based, human; details: highest concentration 40 μM; bound = highest concentration with < 50 % inhibition; read-out: PC-3 cytotoxicity IC50 ± SEM
From the text: as §1, §2

[2] = target: late stage gametocytes (stage IV to V) of P. falciparum line NF54^Pfs16; assay: Gametocyte luciferase assay, late stage; format: cell-based, Plasmodium falciparum
From the text: To investigate a potential role of CoA biosynthesis for host to vector transmission of the malaria parasite, we investigated the activity of our compounds on P. falciparum gametocytes, the sexual stages of P. falciparum, essential for malaria transmission. […] Parasite stage-specificity and gametocytocidal activity of the compounds was therefore investigated, utilizing a luciferase-based approach on early stage (development from stage I to IIb/III [30]) and late stage (IV to V [51]) gametocytes.
(§3) Induction of P. falciparum gametocyte differentiation and gametocyte culturing were performed as previously described. Compound activity against early stage gametocytes (covering the development from stage I to IIb/III) and late stage gametocytes (stage IV to V) of the recombinant P. falciparum line NF54^Pfs16 was assessed in concentration-response assays, in two experimental replicates consisting of two technical repeats each, at a highest concentration of 40 μM, as described earlier.

[3] = test system: T. b. brucei trypomastigote; assay: T. b. brucei resazurin (Alamar Blue) viability assay; format: cell-based, Trypanosoma brucei brucei
Method: Compound activity against two members of another clinically important group of parasites, the kinetoplastids T. cruzi and T. b. brucei was determined. The sensitive high content imaging assay used to determine compound activity against T. cruzi assesses the intracellular amastigote life form of the parasite in the 3T3 host cell. […] The T. b. brucei assay employs the REDOX indicator Alamar Blue to assess viability, which was developed into a 384-well assay format.
Compound activity against T. b. brucei was assessed in a resazurin-based viability assay in concentration-response assays, without technical repeats, in two experimental replicates at a highest concentration of 40 μM, as previously described.

[4] = test system: P. falciparum developmental stages; assay: Activity across all P. falciparum life-cycle stages tested (asexual, early and late gametocytes); format: cell-based, Plasmodium falciparum; details: early and late stage gametocytes; for IC50: read-out: IC50 range across all P. falciparum life-cycle stages tested
Method: as §3

[5] = test system: P. falciparum asexual blood stages (PfAS); assay: Chemical rescue with CoA pathway intermediates, asexual stages; format: cell-based, Plasmodium falciparum; details: inhibitor at IC80; for Percent rescue ± SEM by pantethine, PfAS: pantethine 125 μM; for Percent rescue ± SEM by pantothenate, PfAS: pantothenate 300 μM; for Percent rescue ± SEM by CoA, PfAS: CoA 0.8 mM; for Percent rescue ± SEM by dephospho CoA, PfAS: dP-CoA 0.8 mM
Method: (§4) Pantothenate is the first substrate of the pathway (Fig. 1) and its addition was intended to rescue the action of possible competitive inhibitors of the first enzyme, PanK. […] It is not known, whether P. falciparum is capable of pantetheine phosphorylation for utilization in CoA synthesis. […] Finally, the rescue ability of dP-CoA, the final substrate of CoA synthesis, was tested. […] Inhibitors competing with dP-CoA for DPCK binding were expected to be displaced, thereby rescuing parasite survival, by dP-CoA supplementation in a concentration dependent manner.
(§5) An imaging based assay was utilised to assess the chemical rescue on asexual stages of P. falciparum as described previously. All the pathway intermediates were purchased from Sigma. CoA and dP-CoA were dissolved in sterile distilled water to obtain a 20 mM stock solution, which was then aliquoted and stored at -20 °C until use. […] Each pathway intermediate was tested on the parasites at a range of concentrations to assess potential toxicity. […] On early stage P. falciparum gametocytes the same concentrations as for CoA were tested for dP-CoA; against asexual blood stage P. falciparum, late stage gametocytes and Trypanosoma b. brucei five dP-CoA concentrations were tested (2 mM, 1.5 mM, 1 mM, 0.75 mM and 0.5 mM).
(§6) The same concentration ranges of the CoA pathway intermediates were supplemented to parasites treated with the experimental compounds. The inhibitors were used at their respective final assay concentration of IC80 (as determined previously in the corresponding P. falciparum development stage or T. b. brucei assay). […] The negative control used in each assay was 0.4% DMSO, whilst the positive control was 2 μM artemisinin for asexual P. falciparum blood stages and 5 μM puromycin for all gametocyte stages and T. b. brucei. The percentage growth of the respective parasites following compound treatment was determined using Microsoft ® Excel 2010, and compared with their controls. All rescue assays were performed as two independent experiments each in duplicate point.

MCF7 cells = assay: Resazurin cytotoxicity assay, MCF7; format: cell-based, human; details: highest concentration 40 μM; bound = highest concentration with < 50 % inhibition; read-out: MCF7 cytotoxicity IC50 ± SEM
From the text: as §1, §2

[6] = test system: P. falciparum late stage gametocytes (PfLG, stages IV-V); assay: Chemical rescue with CoA pathway intermediates, late stage gametocytes; format: cell-based, Plasmodium falciparum; details: inhibitor at IC80; for Percent rescue ± SEM by pantethine, PfLG: pantethine 5 mM; for Percent rescue ± SEM by pantothenate, PfLG: pantothenate 312.5 μM; for Percent rescue ± SEM by CoA, PfLG: CoA 1.8 mM; for Percent rescue ± SEM by dephospho CoA, PfLG: dP-CoA 2 mM
Method: as §4, §5, §6

T. cruzi trypomastigotes = assay: T. cruzi trypomastigote PrestoBlue assay; format: cell-based, Trypanosoma cruzi; details: for IC50: highest concentration 40 μM, read-out: T. cruzi trypomastigote IC50 ± SEM
Method: Compound activity against T. cruzi trypomastigotes was assessed in two independent experiments, without technical repeats, at a final highest compound concentration of 40 μM in concentration-response PrestoBlue assay, as previously described.

[7] = test system: P. falciparum asexual blood stage; details: as previously reported; read-out: Asexual P. falciparum IC50 ± SEM; cited from earlier work
[8] = read-out: Late stage gametocyte IC50
[9] = 40 µM, given if an IC50 could not be calculated
[10] = highest concentration 40 μM, read-out: Late stage gametocyte IC50 ± SEM

Structure (SMILES): Cc1csc(Sc2ncnc3sccc23)n1 [Amb180780]
- cytotoxicity against any of the cell lines investigated (in words) [1]: no or only negligible cytotoxicity
- IC50 (PC-3 cells): > 40000 nM
- IC50 [2, 8]: 70 nM
- T. b. brucei trypomastigote percent inhibition at the highest concentration tested [3, 9]: 100%
- activity against all P. falciparum development stages tested (in words) [4]: sub-micromolar IC50 values
- IC50 [4]: 60 to 120 nM
- Percent rescue ± SEM by pantethine, PfAS [5]: 76.2 ± 7.7% and 76 ± 8%
- Percent rescue ± SEM by pantothenate, PfAS [5]: No and not by pantothenate
- IC50 (MCF7 cells): > 40000 nM
- Percent rescue ± SEM by pantethine, PfLG [6]: No
- Percent rescue ± SEM by pantothenate, PfLG [6]: No
- T. cruzi trypomastigote percent inhibition at the highest concentration tested (T. cruzi trypomastigotes; [9]): 100%
- IC50 [7]: 120 ± 20 nM

Structure (SMILES): CC1=CC(=O)C(C(C)C)=C/C1=N/OS(=O)(=O)c1ccccc1 [STK 740987]
- cytotoxicity against any of the cell lines investigated (in words) [1]: no or only negligible cytotoxicity
- IC50 (PC-3 cells): > 20000 nM
- IC50 [2, 8]: 460 nM
- IC50 ([3]; highest concentration 40 μM, read-out: T. b. brucei trypomastigote IC50 ± SEM): 1020 nM and 1000 nM
- activity against all P. falciparum development stages tested (in words) [4]: sub-micromolar IC50 values
- IC50 [4]: 380 to 460 nM
- Percent rescue ± SEM by CoA, PfAS [5]: 103.9 ± 3.4%
- Percent rescue ± SEM by dephospho CoA, PfAS [5]: 88.9 ± 6.7%
- Percent rescue ± SEM by pantethine, PfAS [5]: No
- Percent rescue ± SEM by pantothenate, PfAS [5]: No
- IC50 (MCF7 cells): > 40000 nM
- Percent rescue ± SEM by CoA, PfLG [6]: 53.1 ± 0.5%
- Percent rescue ± SEM by CoA, PfLG ([6]; listed as STK740987): approximately 50%
- Percent rescue ± SEM by dephospho CoA, PfLG [6]: 50.3 ± 0.8%
- Percent rescue ± SEM by dephospho CoA, PfLG ([6]; listed as STK740987): approximately 50%
- Percent rescue ± SEM by pantethine, PfLG [6]: No
- Percent rescue ± SEM by pantothenate, PfLG [6]: No
- IC50 (T. cruzi trypomastigotes): 680 nM and 682 nM
- IC50 [7]: 380 ± 60 nM

Structure (SMILES): CC(=O)c1ccc2c3c(onc13)-c1ccccc1C2=O [Amb3377585]
- IC50 [1]: 5000 to 9000 nM
- IC50 (PC-3 cells): 5500 ± 640 nM
- IC50 [2, 10]: 6220 ± 2500 nM
- IC50 ([3]; read-out: T. b. brucei IC50): 200 nM
- Percent rescue ± SEM by CoA, PfAS [5]: 89.3 ± 2.6%
- Percent rescue ± SEM by dephospho CoA, PfAS [5]: 38.7 ± 4.7%
- Percent rescue ± SEM by pantethine, PfAS [5]: No
- Percent rescue ± SEM by pantothenate, PfAS [5]: No
- IC50 (MCF7 cells): 9100 ± 620 nM
- IC50 (T. cruzi trypomastigotes): 740 nM and 744 nM
- IC50 [7]: 150 ± 10 nM

Structure (SMILES): CC(=O)C1=C(c2ccccc2)C(=O)c2ccccc2C1=O [Amb4317088]
- IC50 [1]: 870 to 4600 nM
- IC50 (PC-3 cells): 1400 ± 60 nM
- IC50 [2, 10]: 2240 nM and 2200 nM
- IC50 ([3]; read-out: T. b. brucei IC50): 160 nM
- activity against all P. falciparum development stages tested (in words) [4]: moderate, single digit micromolar activity
- Percent rescue ± SEM by CoA, PfAS [5]: 84.5 ± 7.7%
- Percent rescue ± SEM by dephospho CoA, PfAS [5]: 77.6 ± 5.5%
- Percent rescue ± SEM by pantethine, PfAS [5]: No
- Percent rescue ± SEM by pantothenate, PfAS [5]: No
- IC50 (MCF7 cells): 4600 ± 160 nM
- Percent rescue ± SEM by pantethine, PfLG [6]: No
- Percent rescue ± SEM by pantothenate, PfLG [6]: No
- IC50 (T. cruzi trypomastigotes): 390 nM and 392 nM
- IC50 [7]: 1230 ± 60 nM
